This is an account of results in ChEMBL document CHEMBL4811216, “Chemotherapy for human schistosomiasis: how far have we come? What's new? Where do we go from here?” (RSC Med Chem, 2020).

The subject of assay [1] is Schistosoma mansoni. The experiment in a line: Schistosomicidal-activity against Schistosoma mansoni LE assessed as reduction in motor activity at 50 uM measured after 120 hrs relative to control. The class given is functional. Further details: scale not given: the % may be the effect or the level left.
In assay [2] the test system is Schistosoma mansoni. Description: Schistosomicidal-activity against Schistosoma mansoni LE assessed as seperation of worm couples at 25 uM measured within 120 hrs relative to control. The class given is functional.
Assay [3] relates to Schistosoma mansoni. The experiment in a line: Antischistosomal activity against adult Schistosoma mansoni BH assessed as tegument damage at 150 to 200 ug/ml incubated for 120 hrs measured every 24 hrs by light microscopy relative to control. The class given is functional. The settings on record: dose 150-200 µg/ml, at 150 to 200 µg/mL.
In assay [4] the test system is Schistosoma mansoni. The experiment in a line: Antischistosomal activity against adult Schistosoma mansoni BH infected in Balb/C mouse assessed as reduction in worm burden at 40 mg/kg, po administered at 45 days post infection and measured at 15 days post treatment relative to control. The class given is functional. Further details: scale not given: the % may be the effect or the level left. The settings on record: time 15 day.

In assay [5] the test system is Schistosoma mansoni. The experiment in a line: Antischistosomal activity against adult Schistosoma mansoni BH assessed as worm death at 150 to 200 ug/ml incubated for 120 hrs measured every 24 hrs by light microscopy relative to control. The class given is functional. The settings on record: dose 150-200 µg/ml, at 150 to 200 µg/mL.
The subject of assay [6] is Schistosoma mansoni. Description: Antischistosomal activity against juvenile Schistosoma mansoni BH infected in Balb/C mouse assessed as reduction in worm burden at 40 mg/kg, po administered at 21 days post infection and measured at 15 days post treatment relative to control. The class given is functional. The arrangement: scale not given: the % may be the effect or the level left. The settings on record: time 15 day.

Assay [7] relates to Schistosoma mansoni. The experiment in a line: Antischistosomal activity against Schistosoma mansoni Liberian NTS at 10 uM measured after 24 hrs relative to control. The class given is functional.
For assay [8], the system named is Schistosoma mansoni. Description: Antischistosomal activity against adult Schistosoma mansoni BH assessed as reduction in motor activity at 150 to 200 ug/ml incubated for 120 hrs measured every 24 hrs by light microscopy relative to control. The class given is functional. Further details: scale not given: the % may be the effect or the level left. As to conditions: dose 150-200 µg/ml, at 150 to 200 µg/mL.

Assay [9] has as its system Schistosoma mansoni. Description: Antischistosomal activity against adult Schistosoma mansoni BH infected in Balb/C mouse assessed as reduction in number of eggs at 40 mg/kg, po administered at 45 days post infection and measured at 15 days post treatment relative to control. The class given is functional. Further details: scale not given: the % may be the effect or the level left. The settings on record: time 15 day.

Assay [10] concerns Schistosoma mansoni. The experiment in a line: Antischistosomal activity against Schistosoma mansoni Liberian assessed as worm death at 20 uM incubated for 72 hrs measured every 24 hrs by microscopic method relative to control. The class given is functional.
Assay [11] deals with Schistosoma mansoni. The experiment in a line: Antischistosomal activity against Schistosoma mansoni Liberian assessed as reduction in worm motor activity incubated for 72 hrs measured every 24 hrs by microscopic method relative to control. The class given is functional, organism-based.
Assay [12] concerns Schistosoma mansoni. The experiment in a line: Antischistosomal activity against Schistosoma mansoni Liberian assessed as reduction in egg production incubated for 72 hrs measured every 24 hrs. The class given is functional, organism-based.
Assay [13] concerns Schistosoma mansoni. Description: Antischistosomal activity against Schistosoma mansoni incubated for 24 hrs by MTT assay. The class given is functional, organism-based. In general terms: Tetrazolium assays rely on reduction of a dye to a coloured formazan, in cell work by metabolically active cells.
Assay [14] has as its system Schistosoma mansoni. The experiment in a line: Antischistosomal activity against Schistosoma mansoni assessed as reduction in worm motor activity at <=100 uM measured within 72 hrs relative to control. The class given is functional. Further details: scale not given: the % may be the effect or the level left. As to conditions: dose microM <=100.
Assay [15] deals with Schistosoma mansoni. Description: Antischistosomal activity against Schistosoma mansoni assessed as tegument damage at <=100 uM measured within 72 hrs relative to control. The class given is functional. The settings on record: dose microM <=100.
Assay [16] concerns Schistosoma mansoni. The experiment in a line: Antischistosomal activity against Schistosoma mansoni assessed as worm death at <= 100 uM measured within 72 hrs relative to control. The class given is functional. The settings on record: dose microM <=100.
In assay [17] the test system is Schistosoma mansoni. The experiment in a line: Antischistosomal activity against Schistosoma mansoni BH infected in Balb/C mouse assessed as reduction in worm burden at 100 mg/kg, po measured after 2 weeks by Kato-Katz quantitative method. The class given is functional. The settings on record: Schistosoma mansoni, BH, po, 336 h.
In assay [18] the test system is Schistosoma mansoni. Description: Antischistosomal activity against Schistosoma mansoni BH assessed as changes in motor activity at 3.125 to 25 ug/ml measured up to 120 hrs by inverted microscopic method relative to control. The class given is functional. As to conditions: dose 3.125-25 µg/ml; time hrs <=120; at 3.125 to 25 µg/mL.
The test system of assay [19] is Schistosoma mansoni. Description: Antischistosomal activity against adult Schistosoma mansoni BH infected in Balb/C mouse assessed as reduction in worm burden at 100 mg/kg, po measured after 2 weeks. The class given is functional. Further details: scale not given: the % may be the effect or the level left.
Assay [20] has as its system Schistosoma mansoni. The experiment in a line: Antischistosomal activity against Schistosoma mansoni BH assessed as tegument damage at 3.125 to 25 ug/ml measured up to 120 hrs by inverted microscopic method relative to control. The class given is functional. The settings on record: dose 3.125-25 µg/ml; time hrs <=120; at 3.125 to 25 µg/mL.
For assay [21], the system named is Schistosoma mansoni. The experiment in a line: Antischistosomal activity against juvenile Schistosoma mansoni BH infected in Balb/C mouse assessed as reduction in worm burden at 100 mg/kg, po measured after 2 weeks. Further details: scale not given: the % may be the effect or the level left. The class given is functional.

For `COc1cc([C@@H]2OC(=O)[C@@H]3[C@H]2C(=O)O[C@H]3c2ccc(O)c(OC)c2)ccc1O`, the Activity in [1] and in assay [2] was 25% each time.
In general, mortality refers to the percentage killed. For the compound `Cn1cnc(C[C@H]2CCC(=O)[C@@H]2[C@H](O)c2ccccc2)c1`, the Activity is on record as 100% in assay [3]; 70% in [4]; 50.2% in [6]; 100% in assay [7]; 100% in [8]; 80% in [9]. In [5], the mortality came out at 100%.
What is called EC50 is the concentration at which the effect is half-maximal. For the compound `C[C@@H](N)CCCCCC/C=C\CCCCCCCCN`, the mortality at 20 µM in assay [10] turned out to be 100%. Also, the values for the EC50 in assay [11] and in [12] were 8.8 µM and 3.6 µM, respectively.
For orientation: IC50 means the concentration that gives 50% inhibition. `C/C=C/c1cc(OC)c2c(c1)C(C)C(c1ccc(O)c(OC)c1)O2` (stereo unspecified) [DEHRODIISOEUGENOL]: the midpoint of inhibition in assay [13], the IC50, lay at 53.5 µM. For the same compound, the Activity in [14] turned out to be 100%; in [15], 25%. For the same compound, the mortality in [16] turned out to be 100%.
In the case of `Cn1cncc1C[C@H]1CCC(=O)[C@H]1C(O)c1ccccc1` (stereo partly specified), the mortality at 100 mg/kg in assay [17] was determined as 64.1%. The Activity in assay [18] was determined as 100%; in assay [19], 60.6%; in assay [20], 100%; in assay [21] it was 58%.
